# From publication PMC12280925, “Structure-based discovery of positive allosteric modulators of the A1 adenosine receptor” (Proceedings of the National Academy of Sciences of the …, 2025)
# Tests used:
# [1] = target: T1, A1R (A1R-FlpInCHO cells) (Homo sapiens, UniProt P30542); experiment: Inhibition of forskolin-stimulated cAMP accumulation: NECA potency ± compound and compound alone; assay type: cell-based; conditions: for effect on NECA potency (pEC50): 30 μM compound, inhibition of forskolin-stimulated cAMP accumulation, A1R-FlpINCHO cells; for allosteric agonism (functional response in the absence of NECA): 30 μM compound alone, 3 μM forskolin-stimulated cAMP accumulation
# T1 sequence (P30542 1-326): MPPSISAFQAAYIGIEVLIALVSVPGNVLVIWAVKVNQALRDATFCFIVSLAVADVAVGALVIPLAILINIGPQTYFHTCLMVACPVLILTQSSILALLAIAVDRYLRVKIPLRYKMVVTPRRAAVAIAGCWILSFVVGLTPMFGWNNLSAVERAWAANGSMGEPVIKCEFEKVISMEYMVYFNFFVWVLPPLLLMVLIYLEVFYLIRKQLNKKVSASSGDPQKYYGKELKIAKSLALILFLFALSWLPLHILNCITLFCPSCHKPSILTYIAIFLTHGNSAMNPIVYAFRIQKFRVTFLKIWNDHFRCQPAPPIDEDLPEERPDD
# Method: (§1) FlpInCHO cell lines and cortical neuron cells were seeded into transparent 96-well plates at 20,000 cells/well and incubated for 16 to 20 h in a humidified incubator at 37 °C in 5% CO2. […] Compounds were added at either a single concentration (10 or 30 μM) or a concentration range for full interaction studies (3 to 30 μM), and plates were incubated for 30 to 60 min at 37 °C in a humidified chamber. […] After 30 min incubation at 37 °C, the reaction was terminated by rapid removal of buffer and the addition of 50 μL/well cold ethanol. […] Agonist concentration–response curves were normalized to the response mediated by 3 µM forskolin […].
# Response=Basal+Emax-Basal×A/EC50+A,
# [2] = target: T1, A1R (A1R-FlpInCHO cells); experiment: Whole-cell [3H]DPCPX competition binding: NECA affinity in absence or presence of compound; conditions: 30 μM compound; for effect on NECA affinity (pKI): [3H]DPCPX competition binding, A1R-FlpINCHO cells; for effect on [3H]DPCPX binding (1 nM): absence of orthosteric agonist
# Method: [^3H]DPCPX (8-cyclopentyl-1,3-dipropylxanthine, [dipropyl-2,3-^3H(N)]) whole-cell binding assays were performed on FlpINCHO cells stably expressing either WT (nontagged or 3xHA-tagged) or mutant 3xHA-A1R. Cells were seeded into a transparent 96-well plate at 40,000 cells/well in DMEM containing 10% FBS. Following 8 h incubation in a humidified environment at 37 °C in 5% CO2, cells were washed and maintained in serum-free DMEM for approximately 18 h at 37 °C in 5% CO2. […] Assays were terminated by washing twice with 100 μL/well cold phosphate-buffered saline, followed by the addition of 100 μL OptiPhase Supermix™ scintillation cocktail and bound radioactivity measured using a MicroBeta^2 ™ plate counter (PerkinElmer).
# [^3H]DPCPX competition binding curves were fitted to a one-site inhibitory mass action equation:[1] Y=Bottom+Top-Bottom/1+10^X-LogIC50,
# The top and bottom represent the maximal and minimal binding in the presence of the competitive ligand, respectively. Equilibrium dissociation constant (KI) values were subsequently derived from inhibition binding experiments using the Cheng–Prusoff equation:[2] KI=IC50/1+A/KD.
# [3] = target: T1, A1R (A1R-FlpInCHO cells); experiment: NECA/allosteric ligand interaction in cAMP accumulation, operational model of allosterism; assay type: cell-based
# Method: as §1
# [5] E=EmτAAKB+αβ[B]+τB[B]KA^n/AKB+KAKB+[B]KA+α[A][B]^n+τAAKB+αβ[B]+τB[B]KA^n
# Orthosteric agonist and allosteric ligand affinity were constrained to values determined from radioligand binding.
# [4] = target: T2, A1R allosteric site (A1R-FlpINCHO cells, wild type) (Homo sapiens, UniProt P30542); experiment: Whole-cell [3H]DPCPX interaction binding with NECA, allosteric ternary complex model
# T2 sequence (P30542 1-326): T1 sequence (P30542 1-326)
# Source text: Equilibrium binding interaction experiments were fitted to the following allosteric ternary complex model.[3] Y=BmaxA/A+KAKB/αAB+KB1+[I]/KI+[B]/KB+αII[B]/KIKB,
# A cooperativity factor α > 1 describes positive cooperativity; a value 0 < α < 1 describes negative cooperativity, and a value of α = 1 describes neutral cooperativity.
SMILES,effect on NECA potency (pEC50) [1],effect on NECA affinity (pKI) [2],allosteric ligand efficacy (logτB) ([3]; allosteric agonism in cAMP),functional cooperativity with NECA (logαβ) ([3]; cAMP),"Kb ([4]; allosteric ternary complex model, n = 4, read-out: allosteric ligand affinity (pKB) (converted)) [µM]","binding cooperativity with NECA (logα) ([4]; allosteric ternary complex model, orthosteric agonist NECA)","positive cooperativity between PAM and NECA ([4]; approximate, from logα) [fold]","Kd ([4]; approximate, from pKB, read-out: affinity for the A1R allosteric site) [µM]",allosteric agonism (functional response in the absence of NECA) [1],effect on [3H]DPCPX binding (1 nM) [2]
CCCc1sc(N)nc1-c1ccc(C)cc1C [compound 2],significantly enhanced,significantly enhanced,,,,,,,,
Nc1nc(-c2cccc3ccccc23)cs1 [compound 12],significantly enhanced,significantly enhanced,−0.65 ± 0.12,0.68 ± 0.10,23.4,0.99 ± 0.25,~10,~25,no significant effect,modest but significant decrease
Cc1ccc(C(=O)c2c(N)sc(C)c2C)cc1 [compound 20],significantly enhanced,significantly enhanced,,,,,,,no significant effect,modest but significant decrease
Nc1ccc(Cl)cc1C(=O)c1ccc(F)cc1 [compound 22],,significantly enhanced,,,,,,,,
